{"source": "patent US20040110756A1", "about": "“New anthracene derivatives and their use as pharmaceutical preparations” (priority 2002, published 2004)", "type_in_all_cases": "cell-based", "key": {"[1]": {"system": "human glioblastoma cell line SF-268", "test": "XTT proliferation assay, SF-268", "conditions": "SF-268 cells, 45 hours incubation", "text": "(§1) The substance of Example 2 was investigated in a proliferation test on established tumor cell lines for its anti-proliferative activity. The test used determines the cellular dehydrogenase activity and enables the cell vitality and, indirectly, the cell count to be determined. The cell lines used are the human cervix carcinoma cell line KB/HeLa (ATCC CCL17), the ovarian adenocarcinoma cell line SKOV-3 (ATCC HTB77), the human glioblastoma cell line SF-268 (NCI 503138) and the lung carcinoma cell line NCI-H460 (NCI 503473). Moreover, for investigating the effect of the substance specifically on the cell cycle, an RKOp27 cell system was used (M. Schmidt et al. Oncogene 19(20):2423-9, 2000). […]\n(§2) The adherent, growing tumor cell lines KB/HeLa, SKOV-3, SF-268, NCI-H460, ASPC1, A172, A431, A549, DU145, C6, MDAMB435, HT29, PC3, T47D, U118MG and U373MG were cultured under standard conditions in the gassing incubator at 37° C., 5% CO2 and 95% relative humidity. […] Subsequently, the cell plates were incubated for a further 3 hours in a gassing incubator and the optical density (OD490 nm) was determined in the photometer. The percentage inhibition, relative to the control, is determined by means of the OD490 nm and plotted semi-logarithmically in the form of a concentration vs. activity curve. […]"}, "[2]": {"system": "human breast cancer cell line MDA MB435", "test": "XTT proliferation assay, MDA MB435", "conditions": "MDA-MB-435, MDA MB435 cells, average of two independent experiments", "text": "(§3) For further characterization, substance 2 was investigated for its anti-proliferative effect using a panel of 12 human tumor cell lines. The cell lines used were the human glioma cell lines A172 (ATCC CRL-1620), U118 (ATCC HTB-15) and U373 (ATCC HTB-17), the rat glioma cell line C6 (ATCC CCL-107), the human lung carcinoma cell line A549, the human epidermoid carcinoma A431 (ATCC CRL-2592), the human prostate cancer cell lines DU145 (ATCC HTB-81) and PC3 (ATCC CRL-1435), the human colon adenocarcinoma cell line HT 29 (ATCC HTB-38), the human pancreas adenocarcinoma cell line ASPC1 (ATCC CRL-1682) and the human breast cancer cell lines T47D (ECACC 88062428) and MCAMB435 (NCI 914182). […]\nas §2"}, "[3]": {"system": "human colon adenocarcinoma cell line HT 29", "test": "XTT proliferation assay, HT29", "conditions": "HT29 cells, average of two independent experiments", "text": "as §3, §2"}, "[4]": {"system": "human prostate cancer cell line PC3", "test": "XTT proliferation assay, PC3", "conditions": "PC-3, PC3 cells, average of two independent experiments", "text": "as §3, §2"}, "[5]": {"system": "ovarian adenocarcinoma cell line SKOV-3", "test": "XTT proliferation assay, SKOV-3", "conditions": "Homo sapiens, SK-OV-3; SKOV-3 cells, 45 hours incubation", "text": "as §1, §2"}, "[6]": {"system": "RKOp27 human colon carcinoma cells", "test": "Cell cycle analysis by means of the RKOp27 model (XTT)", "conditions": "for EC50: Homo sapiens, RKOp27, 45 h", "text": "The substance of Example 2 was investigated in a proliferation test on established tumor cell lines for its anti-proliferative activity. The test used determines the cellular dehydrogenase activity and enables the cell vitality and, indirectly, the cell count to be determined. The cell lines used are the human cervix carcinoma cell line KB/HeLa (ATCC CCL17), the ovarian adenocarcinoma cell line SKOV-3 (ATCC HTB77), the human glioblastoma cell line SF-268 (NCI 503138) and the lung carcinoma cell line NCI-H460 (NCI 503473). Moreover, for investigating the effect of the substance specifically on the cell cycle, an RKOp27 cell system was used (M. Schmidt et al. Oncogene 19(20):2423-9, 2000). The RKO is a human colon carcinoma line, in which the cell cycle inhibitor p27^kip1 was expressed by means of the Ecdyson Expression System and can be brought to a cell cycle arrest in G2. A substance of nonspecific activity inhibits the proliferation independently of whether the RKO cell is or is not arrested in G1 or G2. On the other hand, cell cycle specific substances, such as tubulin inhibitors, are cytotoxic only when the cells are not arrested and passed through the cell cycle. In Table 2, the cytotoxic or growth-inhibiting activity of the compound described is shown with and without expression of p27^kip1.\nas §2, with “curve. The EC50 is calculated from the concentration-activity curve by means of a regression analysis, using the Graphpad Prism program” for “curve.”"}, "[7]": {"system": "human glioma cell line U118", "test": "XTT proliferation assay, U118MG", "conditions": "U-118-MG, U118MG cells, average of two independent experiments", "text": "as §3, §2"}, "[8]": {"system": "rat glioma cell line C6", "test": "XTT proliferation assay, C6", "conditions": "C6 rat glioma cells, average of two independent experiments", "text": "as §3, §2"}, "[9]": {"system": "human glioma cell line A172", "test": "XTT proliferation assay, A172", "conditions": "A 172, A172 cells, average of two independent experiments", "text": "as §3, §2"}, "[10]": {"system": "human glioma cell line U373", "test": "XTT proliferation assay, U373MG", "conditions": "U373 MG, U373MG cells, average of two independent experiments", "text": "as §3, §2"}, "[11]": {"system": "human breast cancer cell line T47D", "test": "XTT proliferation assay, T47D", "conditions": "T47D cells, average of two independent experiments", "text": "as §3, §2"}, "[12]": {"system": "lung carcinoma cell line NCI-H460", "test": "XTT proliferation assay, NCI-H460", "conditions": "Homo sapiens; NCI-H460 cells, 45 hours incubation", "text": "as §1, §2"}, "[13]": {"system": "human prostate cancer cell line DU145", "test": "XTT proliferation assay, DU145", "conditions": "DU-145, DU145 cells, average of two independent experiments", "text": "as §3, §2"}, "[14]": {"system": "human epidermoid carcinoma A431", "test": "XTT proliferation assay, A431", "conditions": "A-431, A431 cells, average of two independent experiments", "text": "as §3, §2"}, "[15]": {"system": "human pancreas adenocarcinoma cell line ASPC1", "test": "XTT proliferation assay, ASPC1", "conditions": "ASPC1 cells, average of two independent experiments", "text": "as §3, §2"}, "[16]": {"system": "human lung carcinoma cell line A549", "test": "XTT proliferation assay, A549", "conditions": "A549 cells, average of two independent experiments", "text": "as §3, §2"}, "[17]": {"system": "human cervix carcinoma cell line KB/HeLa", "test": "XTT proliferation assay, KB/HeLa", "conditions": "KB/HeLa cells, 45 hours incubation", "text": "as §1, §2"}}, "note": "Like-named read-outs stand apart in the source and are kept apart here.", "data": [{"smiles": "COc1cc(OC)cc(N2CCN(C(=O)c3c4ccccc4cc4ccccc34)CC2)c1", "note": "[Example 2, Anthracene-9-yl-[4-(3,5-dimethoxy-phenyl)-piperazine-1-yl]-methanone]", "values": [{"measurement": "EC50", "setting": "[1]", "value": 0.043, "unit": "µg/mL"}, {"measurement": "EC50", "setting": "[2]", "value": 0.054, "unit": "µg/mL"}, {"measurement": "EC50", "setting": "[3]", "value": 0.061, "unit": "µg/mL"}, {"measurement": "EC50", "setting": "[4]", "value": 0.049, "unit": "µg/mL"}, {"measurement": "EC50", "setting": "[5]", "value": 0.047, "unit": "µg/mL"}, {"measurement": "EC50", "setting": "[6]; read-out: XTT Proliferation Assay, EC50 RKOP27", "value": 0.058, "unit": "µg/mL"}, {"measurement": "EC50", "setting": "[6]; read-out: XTT Proliferation Assay, EC50 RKOP27 ind.", "value": "> 3.16", "unit": "µg/mL"}, {"measurement": "cytotoxic activity in the induced state of p27kip1", "setting": "[6]; RKOp27 cells, p27kip1 induced", "value": "did not show any cytotoxic activity"}, {"measurement": "EC50", "setting": "[7]", "value": 0.059, "unit": "µg/mL"}, {"measurement": "EC50", "setting": "[8]", "value": 0.17, "unit": "µg/mL"}, {"measurement": "EC50", "setting": "[9]", "value": 0.046, "unit": "µg/mL"}, {"measurement": "EC50", "setting": "[10]", "value": 0.057, "unit": "µg/mL"}, {"measurement": "EC50", "setting": "[11]", "value": 0.022, "unit": "µg/mL"}, {"measurement": "EC50", "setting": "[12]", "value": 0.054, "unit": "µg/mL"}, {"measurement": "EC50", "setting": "[13]", "value": 0.045, "unit": "µg/mL"}, {"measurement": "EC50", "setting": "[14]", "value": 0.044, "unit": "µg/mL"}, {"measurement": "EC50", "setting": "[15]", "value": 0.11, "unit": "µg/mL"}, {"measurement": "EC50", "setting": "[16]", "value": 0.066, "unit": "µg/mL"}, {"measurement": "EC50", "setting": "[17]", "value": 0.048, "unit": "µg/mL"}]}]}
